{"source": "patent US9708359B2", "about": "“Pyrrolopyrimidine nucleosides and analogs thereof” (Chimerix, Inc., priority 2015, dated 2017)", "key": {"[1]": {"tested_on": "EBV", "experiment": "DNA quantitation assay for EBV", "type": "cell-based, Epstein-Barr virus", "conditions": "human gammaherpesvirus 4, Akata cells", "protocol": "DNA Quantitation Assays for EBV and HHV-6B:\nAssays for EBV were performed in Akata cells that were induced to undergo a lytic infection with goat anti-human IgG antibody by standard methods. Experimental compounds were diluted in plates. Akata cells were added to the plates and incubated. For HHV-6, compounds were serially diluted then uninfected HSB-2 or Molt-3 cells were added to each well. Infection was initiated by adding HHV-6A infected HSB-2 cells, or HHV-6B infected Molt-3 cells, and incubated for 7 d at 37° C. For all assays, denaturation buffer was added to each well to denature the DNA and an aliquot was aspirated through a nylon membrane. The membranes were then allowed to dry before equilibration in DIG. Specific digoxigenin (DIG)-labeled probes were prepared for each virus according to the manufacturer's protocol. Detection of specifically bound DIG probe was performed with anti-DIG antibody using the manufacturer's protocol. An image of the photographic film was captured and quantified and compound concentrations sufficient to reduce the accumulation of viral DNA by 50% (EC50), were interpolated from the experimental data.\nAssays for EBV were performed in Akata cells that were induced to undergo a lytic infection with 50 μg/mL of a goat anti-human IgG antibody by standard methods. […]"}, "[2]": {"tested_on": "mouse norovirus", "experiment": "Mouse Norovirus (MNV) assay in RAW cells"}, "[3]": {"tested_on": "BKV", "experiment": "qPCR assay for BKV", "type": "cell-based, BK virus", "conditions": "Betapolyomavirus hominis, HFF cells", "protocol": "qPCR Assays for BKV and JCV:\nPrimary assays for BK virus were performed in 96-well plates containing monolayers of HFF cells. Compound dilutions were prepared in plates containing cells which were subsequently infected at with the Gardner strain of BK virus. After a 7 d incubation, total DNA was prepared with a purification kit and genome copy number was quantified by real time PCR. Compounds that were positive in this assay were confirmed in a similar assay in 96-well plates with the compounds added 1 h […] to identify compounds that inhibit early stages of replication including adsorption and penetration. Genome copy number was determined by methods described above.\nPrimary assays for BK virus were performed in 96-well plates containing monolayers of HFF cells. Compound dilutions were prepared in plates containing cells which were subsequently infected at with the Gardner strain of BK virus. After a 7 d incubation, total DNA was prepared with a Wizard SV 96 well purification kit and genome copy number was quantified by real time PCR using the primers 5′-[…]-3′ (SEQ ID No. 8) , 5′-[…]-3′ (SEQ ID No. 9) and probe 5-6-FAM […]-3′ (SEQ ID No. 10) . Plasmid pMP526 served as the DNA standard for quantitation purposes. […] Genome copy number was determined by methods described above."}, "[4]": {"experiment": "Parallel cytotoxicity assay in MEF cells", "type": "cell-based", "conditions": "mouse, parallel to MCMV assay", "protocol": "Every antiviral assay included a parallel cytotoxicity assay with the same cells used for each virus, the same cell number, the same drug concentrations, and the same incubation times to provide the same drug exposure. To ensure that the cytotoxicity of all compounds could be compared directly, a standard neutral red uptake cytotoxicity assay for all compounds in confluent HFF cells with a 7 d incubation period was performed."}, "[5]": {"experiment": "in vitro", "conditions": "dog"}}, "note": "Read-outs that look alike come from different tables or passages of the source."}
{"smiles": "Cc1nc(N)c2c(C(N)=O)cn([C@@H]3O[C@H](CO)[C@@H](O)[C@H]3O)c2n1", "note": "[Compound 1, 4-amino-7-((2R,3R,4S,5R)-3,4-dihydroxy-5-(hydroxymethyl)tetrahydrofuran-2-yl)-2-methyl-7H-pyrrolo[2,3-d]pyrimidine-5-carboxamide]", "values": [{"measurement": "EC50", "setting": "[1]", "value": 7.15, "unit": "µM"}, {"measurement": "EC50", "setting": "[2]; Norovirus, in Mus musculus, read-out: EC50 value against mouse norovirus, in vitro, unit inferred", "value": "~2.1", "unit": "µM"}, {"measurement": "EC50", "setting": "[2]; Norovirus, in Mus musculus, read-out: MNV Mean EC50, RAW cells", "value": 2, "unit": "µM"}, {"measurement": "EC50", "setting": "[2]; murine norovirus, Table 7", "value": "1.7 to 3.6", "unit": "µM"}, {"measurement": "EC50", "setting": "[3]", "value": "> 60", "unit": "µM"}, {"measurement": "CC50", "setting": "[4]", "value": "> 100", "unit": "µM"}, {"measurement": "CC50", "setting": "[5]", "value": "> 100", "unit": "µM"}]}
